Laboratory results taken from PMC9911168, “Cytotoxic and pro-apoptotic effects of botanical drugs derived from the indigenous cultivated medicinal plant Paris polyphylla var. yunnanensis” (Frontiers in Pharmacology, 2023).

Experiments:
Assay type in all cases: cell-based, human
HepG2 cells [1] = assay: Mitochondrial membrane potential (JC-10), HepG2; settings: HepG2, 2 μM, 24 h
Procedure: (§1) The probe 5,6-dichloro-1,1′,3,3′- tetraethyl-imidacarbocyanine iodide (JC-10) was used as a measure of mitochondrial membrane potential ([Hirose et al., 1974]; [Chaudhari et al., 2008]). The effects of each of the six isolated saponins on mitochondrial membrane potential were determined using a JC-10 assay kit (×200, 10 μL/tube, five tubes), which was purchased from Beijing Solarbio Science & Technology Co., Ltd. (Beijing, China). Cells were cultured in a confocal dish with this method. After 12–24 h of inoculation and culture at 37°C, the purified saponins were added at the indicated concentrations. The cells were incubated at 37°C in a humidified atmosphere with 5% (v/v) CO2 for 24 h. The culture medium was removed, and the confocal dishes were washed twice with 1 mL PBS, followed by 0.5 mL incubation buffer containing 2.5 μL JC-10 (×200) at 37°C for 20 min in the dark. After incubation, the supernatant was removed, and the cells were washed twice with 1 mL JC-10 buffer and PBS. […] The wavelengths for excitation were 490 nm (green fluorescence) and 525 nm (red fluorescence). The wavelengths for emission were in the range of 495–565 nm (monomers for JC-10) and 550–620 nm (polymer for JC-10).

SMMC-7721 cells [2] = assay: Mitochondrial membrane potential (JC-10), SMMC-7721; settings: SMMC-7721, 2 μM, 24 h
Procedure: as §1

A549 cells [3] = assay: Mitochondrial membrane potential (JC-10), A549; settings: A549, 2 μM, 24 h
Procedure: as §1

A549 = assay: MTS cell viability assay, A549; settings: Homo sapiens, A549, 48 h, read-out: IC50 (±SD) A549
Procedure: (§2) The effects of the extracts and isolated saponins on cell growth were evaluated by the MTS assay (3-(4,5-dimethylthiazol-2-yl)-5(3-carboxymethoxyphenyl)-2-(4-sulfopheny)-2H-tetrazolium; Promega, Madison, WI, United States) on human tumor cell lines ([Mosmann, 1983]; [Cory et al., 1991]; [Malich et al., 1997]). In a test experiment of cell inhibition, the cell inhibition effects of six crude extracts (100 μg/mL) and six isolated saponins (40 μM) were roughly measured to ascertain whether to measure the IC50 value by MTS assay.
(§3) Each well of a 96-well plate (Multiskan Fc, Therm) was seeded with 100 μL cells at a density of 3,000–5,000 cells per well, with the cell suspension containing 10% (v/v) fetal bovine serum (DMEM or RMPI1640, Biological Industries, Kibbutz Beit-Haemek, Israel). After 12–24 h of inoculation and culture at 37°C, the extracts or saponins were added at the indicated concentrations after being dissolved in dimethyl sulfoxide (DMSO, Biological Industries, Kibbutz Beit-Haemek, Israel) in a final volume of 200 μL per well, each in triplicate. The six crude extracts were added at concentrations of 100, 20, 4, 0.8, and 0.16 μg/mL; the six isolated saponins were added at concentrations of 10, 5, 2.5, 1.25, 0.625, and 0.3125 μM. After culture for 48 h at 37°C, 20 μL of MTS solution and 100 μL of DMEM were added to each well; three blank wells were set aside with 20 μL MTS solution and 100 μL DMEM. After an incubation for another 2–4 h, the absorbance at 492 nm was measured. Cisplatin and Paclitaxel (MeilunBio) were used as a positive control in each experiment. The cell growth curve was drawn with the concentration as the abscissa and the cell survival rate as the ordinate. The IC50 value of each saponin was calculated by the two-point method ([Reed and Muench, 1938]).

HepG2 = assay: MTS cell viability assay, HepG2; settings: Homo sapiens, HepG2, 48 h, read-out: IC50 (±SD) HepG2
Procedure: as §2, §3

SMMC-7721 cells [4] = assay: Apoptosis by annexin V-FITC/PI staining, SMMC-7721; settings: SMMC-7721, saponins 5 μM, Figure 7
Procedure: Double staining with annexin V-fluorescein isothiocyanate (FITC) and PI was used to determine the effects of the six saponins on cell apoptosis by flow cytometry ([Homburg et al., 1995]; [Vermes et al., 1995]; [Casciola-Rosen et al., 1996]). The effects of the six isolated saponins on apoptosis were determined using an annexin V-FITC apoptosis kit (BD, Pharmingen); the chemotherapy drug doxorubicin (DOX, Beyotime Institute of Biotechnology, Shanghai, China) was used as the positive control. Cells were cultured in six-well plates at a density of 3 × 10^5 cells per well for 24 h before being treated with each of the six isolated saponins at the indicated concentrations for 24 h. The cells were collected, centrifuged, and washed twice with ice-cold phosphate-buffered saline (PBS). The cells were stained with annexin V-FITC and PI for 15 min in the dark at room temperature before analysis by flow cytometry (BD, FACSCelesta, America). Annexin V-FITC^+ and PI^+ (Q2) were considered late-stage apoptotic cells, while annexin V-FITC^+ and PI^− (Q3) cells were considered early-stage apoptotic cells. Annexin V-FITC^– and PI^+ (Q1) were necrotic or mechanically damaged cells, and annexin V-FITC^– and PI^− (Q4) cells were healthy living cells.

SK-HEP-1 = assay: MTS cell viability assay, SK-HEP-1; settings: Homo sapiens, SK-HEP1, 48 h, read-out: IC50 (±SD) SK-HEP-1
Procedure: as §2, §3

SMMC-7721 = assay: MTS cell viability assay, SMMC-7721; settings: Homo sapiens, SMMC-7721, 48 h, read-out: IC50 (±SD) SMMC-7721
Procedure: as §2, §3

SMMC-7721 cells [5] = assay: Cell cycle analysis (PI staining, flow cytometry), SMMC-7721; settings: SMMC-7721, 24 h, 1 μM
Procedure: (§4) Cell cycle distribution was determined by propidium iodide (PI, BD, Pharmingen) staining ([Kong et al., 2016]; [Wei et al., 2021]). Briefly, three cancer cell lines were cultured in six-well plates at a density of 3 × 10^5 cells per well for 24 h before treatment with each of the six isolated saponins at the indicated concentrations for 24 h. The cells were collected, centrifuged, and washed twice with ice-cold PBS. Cells were fixed in 70% (v/v) ice-cold ethanol at 4°C overnight and washed again in PBS twice. The cells were incubated with 100 μL RNase A at 37°C for 30 min in the dark, after which 400 μL PI was added to the cells with RNase A in the dark at 4°C for 15 min. The cell cycle stage was analyzed by flow cytometry (BD, FACSCelesta, United States) with FLOWJO software (FlowJo, Ashland, OR, United States).

LO2 = assay: MTS cell viability assay, normal liver cell LO2; settings: Homo sapiens, L02, read-out: IC50 (±SD) LO2
Procedure: (§5) Three human liver cancer cell lines (SMMC-7721, HepG2, and SK-HEP-1) and the non-small-cell lung cancer (NSCLC) cell line A549 were obtained from ATCC (Manassas, VA, United States). Normal human cell lines (liver cell line LO2 and lung cell line BEAS-2B) were obtained from ATCC (Manassas, VA, United States). Cells were cultured in RMPI-1640 or DMEM medium (Biological Industries, Kibbutz Beit-Haemek, Israel) supplemented with 10% (v/v) fetal bovine serum (Biological Industries) at 37°C in a humidified atmosphere with 5% (v/v) CO2.
as §2, §3

A549 cells [6] = assay: Cell cycle analysis (PI staining, flow cytometry), A549; settings: A549, 24 h; saponins 1 and 5 at 0.5 μM, other four at 1 μM
Procedure: as §4

HepG2 cells [7] = assay: Cell cycle analysis (PI staining, flow cytometry), HepG2; settings: HepG2, 24 h, 1 μM
Procedure: as §4

BEAS-2B = assay: MTS cell viability assay, normal lung cell BEAS-2B; settings: Homo sapiens, BEAS-2B, read-out: IC50 (±SD) BEAS-2B
Procedure: as §5, §2, §3

SMILES | JC-10 green fluorescence (drop in mitochondrial membrane potential) (HepG2 cells [1]) | JC-10 green fluorescence (drop in mitochondrial membrane potential) (SMMC-7721 cells [2]) | JC-10 green fluorescence (drop in mitochondrial membrane potential) (A549 cells [3]) | IC50 (A549) [nM] | IC50 (HepG2) [nM] | apoptosis rate (induction of apoptosis, in words) (SMMC-7721 cells [4]) | IC50 (SK-HEP-1) [nM] | IC50 (SMMC-7721) [nM] | cell cycle phase with increased proportion of cells compared to DMSO control (SMMC-7721 cells [5]) | increase of proportion of cells in the G2/M phase compared to DMSO control (SMMC-7721 cells [5]) [%] | IC50 (LO2) [nM] | cell cycle phase with increased proportion of cells compared to DMSO control (A549 cells [6]) | increase of proportion of cells in the G2/M phase compared to DMSO control (HepG2 cells [7]) [%] | IC50 (BEAS-2B) [nM]
N#CC(C#N)=NNc1cccc(Cl)c1 [CCCP, carbonyl cyanide 3-chlorophenylhydrazone] | strong green fluorescence | strong green fluorescence | strong green fluorescence |  |  |  |  |  |  |  |  |  |  | 
CC1CCC2(OC1)OC1CC3C4CC=C5CC(OC6OC(CO)C(OC7OC(C)C(OC8OC(C)C(O)C(O)C8O)C(O)C7O)C(O)C6OC6OC(C)C(O)C(O)C6O)CCC5(C)C4CCC3(C)C1C2C [saponin 6, diosgenin-3-O-α-L-rhamnopyranosyl-(1→2)-[α-L-rhamnopyranosyl-(1→4)-α-L-rhamnopyranosyl-(1→4)]-β-D-glucopyranoside] |  |  |  | 240 ± 10 | 2590 ± 30 | substantial induction of apoptosis | 1300 ± 60 | 450 ± 10 | cell cycle arrest at the G2/M phase | 27.10 | 370 ± 10 | G2/M phase | 25.8 | 730 ± 30
